The values that follow come from EP1059033A1, “INDUSTRIAL ANTIBACTERIAL/ANTIFUNGAL AGENTS, ALGICIDES AND ANTI-BIOLOGICAL ADHESION AGENTS CONTAINING BENZYLAMINES” (Nissan Chemical Industries, Ltd., priority 1998, dated 1999).

Format in all cases: cell-based
The subject of assay [1] is freshwater green alga (Selenastrum capricornutum). Briefly: Inhibition of propagation of freshwater green alga (Example 4). The following applies: for inhibition at 0.05 ppm: read-out: Propagation inhibiting rate(%) 50ppb; for inhibition at 0.5 ppm: read-out: Propagation inhibiting rate(%) 500ppb. In outline: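 Inhibition was derived from hemacytometer cell counts taken at 72 h and compared with an untreated control. Cultures started at 10^5 cells/ml in log phase, contained 50 or 500 ppb compound, and were kept still under continuous illumination at 23±1 °C.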

Assay [2] deals with Trichophyton mentagrophytes. The following applies: 72 h, 100 ppm.
For assay [3], the system named is Trichophyton mentagrophytes. Briefly: Agar dilution MIC (Example 2). The settings on record: 168 h, agar plate, 27 °C, 7 days. In outline: (§1)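 Compounds in DMSO were mixed into sensitive medium-N agar (bacteria) or potato dextrose agar (fungi), giving final 0.062–1000 mg/l. Plates were streaked with 10^6 CFU/ml suspensions and incubated 18–20 h at 37±1 °C (bacteria) or 7 days at 27 °C (fungi). MIC (mg/l) is the lowest concentration with no visible growth.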
(In general: In agar dilution the substance is mixed into plates at graded concentrations.)

For assay [4], the system named is Bacillus subtilis. Briefly: Agar dilution MIC (Example 2). The following applies: agar plate, 37±1 °C, 18 to 20 hours. In outline: as §1
For assay [5], the system named is Trichophyton mentagrophytes. Briefly: Agar dilution MIC (Example 3). The settings on record: 168 h, agar plate, 27 °C, 7 days. Summed up:
(§2)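 Compounds in DMSO were mixed into agar to final 1000–2.0 mg/l (twofold series); bacteria on sensitivity medium-N, fungi on potato dextrose agar. Plates were streaked with 10^6 CFU/ml suspensions and incubated 18–20 h at 37±1 °C (bacteria) or 7 days at 27 °C (fungi); MIC is the lowest concentration without growth.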

A further assay has as its system Staphylococcus aureus. Put plainly: Agar dilution MIC (Example 3). The settings on record: agar plate, 37±1 °C, 18 to 20 hours. In outline:
as §2

For assay [6], the system named is Bacillus subtilis. Put plainly: Agar dilution MIC (Example 3). The settings on record: agar plate, 37±1 °C, 18 to 20 hours. Summed up: as §2
For assay [7], the system named is seawater diatom [Nitzschia closterium]. Put plainly: Inhibition of propagation of seawater diatom (Example 5). The settings on record: Cylindrotheca closterium, 72 h, read-out: Propagation inhibiting rate(%) 500ppb.
A further assay concerns Rhodotorula rubra. Put plainly: Agar dilution MIC (Example 3). The following applies: 168 h, agar plate, 27 °C, 7 days. In outline: as §2
Another assay relates to Candida albicans. Put plainly: Agar dilution MIC (Example 3). The following applies: 168 h, agar plate, 27 °C, 7 days. In outline: as §2
A further assay concerns Saccharomyces cerevisiae. Put plainly: Agar dilution MIC (Example 3). The following applies: 168 h, agar plate, 27 °C, 7 days. Summed up:
as §2

The subject of assay [8] is Corynebacterium aquaticum. Briefly: Agar dilution MIC (Example 3). The settings on record: Leifsonia aquatica, agar plate, 37±1 °C, 18 to 20 hours. In outline:
as §2

In a further assay the test system is Fusarium moniliforme. Put plainly: Agar dilution MIC (Example 3). The settings on record: Fusarium verticillioides, 168 h, agar plate, 27 °C, 7 days. In outline:
as §2

In another assay the test system is Chaetomium globosum. Briefly: Agar dilution MIC (Example 3). The following applies: 168 h, agar plate, 27 °C, 7 days. Summed up: as §2
A further assay has as its system Aspergillus niger. Put plainly: Agar dilution MIC (Example 3). The settings on record: 168 h, agar plate, 27 °C, 7 days. In outline:
as §2

In another assay the test system is Alternaria alternata. Put plainly: Agar dilution MIC (Example 3). The following applies: 168 h, agar plate, 27 °C, 7 days. Summed up: as §2
The test system of the next assay is Penicillium funiculosum. Put plainly: Agar dilution MIC (Example 3). The following applies: Talaromyces funiculosus, 168 h, agar plate, 27 °C, 7 days. In outline: as §2
The test system of assay [9] is Cladosporium cladosporioides. Put plainly: Agar dilution MIC (Example 3). The settings on record: 168 h, agar plate, 27 °C, 7 days. In outline: as §2
Another assay deals with Rhodotorula mucilaginosa. Put plainly: Agar dilution MIC (Example 2). The settings on record: 168 h, agar plate, 27 °C, 7 days. In outline: as §1
For another assay, the system named is Micrococcus luteus. Briefly: Agar dilution MIC (Example 3). The settings on record: agar plate, 37±1 °C, 18 to 20 hours. Summed up: as §2
The mark [10] stands for this setting: 500ppb, after 72 hours, cell number vs non-treated lot.

Molecules are shown by their SMILES. Values after ≈ are worked out from the molar mass of the structure shown. Read-outs that look alike come from different tables or passages of the source. Bounds are passed on as bounds.

Turning to `CN(Cc1ccc(C(C)(C)C)cc1)Cc1ccc(Cl)c(Cl)c1` [Compound 3], the inhibition at 0.05 ppm in assay [1] (72 h) turned out to be 90%. In addition, in [1] (72 h), the inhibition at 0.5 ppm was 94%. For the same compound, in [2], the “Judgment (Target bacteria: A)” value is “+ (inhibiting zone (10 to 20 mm) is observed)”. Besides, the MIC – broadly, the least concentration at which growth counts as inhibited – in [3] was less than 2 µg/mL; with Bacillus subtilis [4] it was 125 µg/mL (≈ 372 µM); in [5] it was less than 2 µg/mL; with Staphylococcus aureus, 125 µg/mL (≈ 372 µM); against Bacillus subtilis [6] it was 125 µg/mL (≈ 372 µM).
As for `Cc1cccc(CN(C)Cc2ccc(C(C)(C)C)cc2)c1C` [Compound 4], in [1] (50ppb, after 72 hours, cell number vs non-treated lot), the inhibition at 0.05 ppm was determined as 64%. Also, the inhibition at 0.5 ppm came out at 95% in assay [1] (setting [10]) and 70% in assay [7]. In addition, the “Judgment (Target bacteria: A)” value in [2] is on record as “++ (strongly inhibiting zone (equal to or more than 21 mm) is observed)”. The MIC in assay [3] was less than 2 µg/mL; against Rhodotorula rubra it was 63 µg/mL (≈ 213 µM); against Candida albicans it was 62.5 µg/mL (≈ 212 µM); in assay [5], less than 2 µg/mL; with Saccharomyces cerevisiae, 63 µg/mL (≈ 213 µM); in assay [8] it was 31.3 µg/mL (≈ 106 µM). Further, the minimum inhibitory concentration (MIC) worked out at 31.3 µg/mL (≈ 106 µM) against Fusarium moniliforme; 31.3 µg/mL (≈ 106 µM) with Chaetomium globosum; 15.6 µg/mL (≈ 52.8 µM) with Aspergillus niger; 31.3 µg/mL (≈ 106 µM) against Alternaria alternata; 15.6 µg/mL (≈ 52.8 µM) against Penicillium funiculosum; 31.3 µg/mL (≈ 106 µM) in [9].
In the case of `CC(C)(C)c1ccc(CNCc2cccc(Cl)c2Cl)cc1` [Compound 16], the results for the inhibition at 0.5 ppm in assay [1] (setting [10]) and in assay [7] were 90% and 80%, respectively. Moreover, the MIC in assay [3] came to 7.8 µg/mL (≈ 24.2 µM); in the assay with Bacillus subtilis [4] it was 7.8 µg/mL (≈ 24.2 µM); with Candida albicans it was 62.5 µg/mL (≈ 194 µM); in [5], 7.8 µg/mL (≈ 24.2 µM); with Aspergillus niger, 125 µg/mL (≈ 388 µM); in the assay on Bacillus subtilis [6], 7.8 µg/mL (≈ 24.2 µM). In the assay with Penicillium funiculosum, this compound gave an MIC of 62.5 µg/mL (≈ 194 µM).
Regarding `Cc1cccc(CNCc2ccc(C(C)(C)C)cc2)c1C` [Compound 27], the inhibition at 0.5 ppm in assay [1] (setting [10]) was determined as 89%; in assay [7], 90%. Moreover, the MIC was 7.8 µg/mL (≈ 27.7 µM) in assay [3]; 15.6 µg/mL (≈ 55.4 µM) in the assay on Rhodotorula mucilaginosa; 31.3 µg/mL (≈ 111 µM) in the assay with Bacillus subtilis [4]; 125 µg/mL (≈ 444 µM) against Rhodotorula rubra; 63 µg/mL (≈ 224 µM) against Saccharomyces cerevisiae; 15.6 µg/mL (≈ 55.4 µM) against Micrococcus luteus. Moreover, the MIC in assay [8] was 7.8 µg/mL (≈ 27.7 µM); against Chaetomium globosum, 63 µg/mL (≈ 224 µM); in the assay on Alternaria alternata, 125 µg/mL (≈ 444 µM); in assay [9], 125 µg/mL (≈ 444 µM).
